One experiment has as its target T1, Thromboxane A2 receptor (Homo sapiens, UniProt P21731).
T1 sequence (P21731 whole entry): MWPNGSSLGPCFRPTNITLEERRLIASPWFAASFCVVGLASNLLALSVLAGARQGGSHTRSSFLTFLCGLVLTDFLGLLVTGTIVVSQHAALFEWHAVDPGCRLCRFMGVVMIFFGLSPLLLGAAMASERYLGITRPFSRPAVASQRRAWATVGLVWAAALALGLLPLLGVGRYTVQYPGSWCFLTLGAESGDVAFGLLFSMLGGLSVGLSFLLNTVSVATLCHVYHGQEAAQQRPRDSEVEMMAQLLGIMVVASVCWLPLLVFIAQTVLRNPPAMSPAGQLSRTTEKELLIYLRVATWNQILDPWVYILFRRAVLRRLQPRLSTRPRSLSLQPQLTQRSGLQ
It is filed as functional, cell-based.

For experiment [1], the target named is cGMP-inhibited 3',5'-cyclic phosphodiesterase 3A (Homo sapiens, UniProt Q14432). It is filed as functional.
The target of a further experiment is Histamine H3 receptor (Homo sapiens, UniProt Q9Y5N1).
Another experiment deals with Acetylcholinesterase (Homo sapiens, UniProt P22303). The experiment is classed as functional.
For experiment [2], the target named is 5-hydroxytryptamine receptor 2B (Homo sapiens, UniProt P41595). It is filed as functional, cell-based.
For the next experiment, the target named is T2, Progesterone receptor (Homo sapiens, UniProt P06401).
T2 sequence (P06401 whole entry): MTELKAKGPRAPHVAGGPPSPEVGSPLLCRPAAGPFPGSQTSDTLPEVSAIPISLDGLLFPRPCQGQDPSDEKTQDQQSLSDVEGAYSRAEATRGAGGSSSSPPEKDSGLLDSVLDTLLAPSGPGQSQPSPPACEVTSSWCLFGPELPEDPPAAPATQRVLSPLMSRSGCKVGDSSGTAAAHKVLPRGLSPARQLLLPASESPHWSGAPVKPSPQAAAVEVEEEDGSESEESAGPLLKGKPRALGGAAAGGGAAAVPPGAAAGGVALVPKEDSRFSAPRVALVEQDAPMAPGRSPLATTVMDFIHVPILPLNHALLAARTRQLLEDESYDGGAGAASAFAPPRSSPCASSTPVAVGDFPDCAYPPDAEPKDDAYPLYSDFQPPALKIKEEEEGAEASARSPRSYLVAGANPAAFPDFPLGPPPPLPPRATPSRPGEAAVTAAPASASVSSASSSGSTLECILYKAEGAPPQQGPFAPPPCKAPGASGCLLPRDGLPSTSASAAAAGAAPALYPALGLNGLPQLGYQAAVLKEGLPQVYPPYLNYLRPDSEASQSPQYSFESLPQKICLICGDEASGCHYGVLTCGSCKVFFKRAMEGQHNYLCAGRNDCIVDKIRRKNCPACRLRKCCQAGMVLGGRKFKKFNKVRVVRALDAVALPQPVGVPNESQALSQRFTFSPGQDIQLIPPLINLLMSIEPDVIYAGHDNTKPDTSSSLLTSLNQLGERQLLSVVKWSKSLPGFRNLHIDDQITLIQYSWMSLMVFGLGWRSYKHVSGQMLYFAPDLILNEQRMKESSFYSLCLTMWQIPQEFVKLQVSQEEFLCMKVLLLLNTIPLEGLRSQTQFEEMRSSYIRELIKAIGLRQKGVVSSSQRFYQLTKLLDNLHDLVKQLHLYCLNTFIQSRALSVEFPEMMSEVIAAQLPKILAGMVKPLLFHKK

For the next experiment, the target named is T3, Adenosine receptor A3 (Homo sapiens, UniProt P0DMS8).
T3 sequence (P0DMS8 whole entry): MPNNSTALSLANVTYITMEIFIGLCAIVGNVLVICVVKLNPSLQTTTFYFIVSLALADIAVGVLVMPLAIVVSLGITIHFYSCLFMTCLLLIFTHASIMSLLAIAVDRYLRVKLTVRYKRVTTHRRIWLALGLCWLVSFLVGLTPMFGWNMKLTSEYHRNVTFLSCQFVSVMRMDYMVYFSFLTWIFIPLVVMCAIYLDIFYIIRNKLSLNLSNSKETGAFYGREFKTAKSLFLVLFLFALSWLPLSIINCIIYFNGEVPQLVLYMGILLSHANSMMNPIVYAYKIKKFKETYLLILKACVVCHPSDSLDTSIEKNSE

Experiment [3] addresses Sodium-dependent noradrenaline transporter (Homo sapiens, UniProt P23975).
In experiment [4] the target is Kappa-type opioid receptor (Homo sapiens, UniProt P41145).

SMILES strings stand for the structures. Bounds are passed on as bounds.
Further: assay procedure not described here.

Chain of Acetylcholinesterase (P22303 whole entry): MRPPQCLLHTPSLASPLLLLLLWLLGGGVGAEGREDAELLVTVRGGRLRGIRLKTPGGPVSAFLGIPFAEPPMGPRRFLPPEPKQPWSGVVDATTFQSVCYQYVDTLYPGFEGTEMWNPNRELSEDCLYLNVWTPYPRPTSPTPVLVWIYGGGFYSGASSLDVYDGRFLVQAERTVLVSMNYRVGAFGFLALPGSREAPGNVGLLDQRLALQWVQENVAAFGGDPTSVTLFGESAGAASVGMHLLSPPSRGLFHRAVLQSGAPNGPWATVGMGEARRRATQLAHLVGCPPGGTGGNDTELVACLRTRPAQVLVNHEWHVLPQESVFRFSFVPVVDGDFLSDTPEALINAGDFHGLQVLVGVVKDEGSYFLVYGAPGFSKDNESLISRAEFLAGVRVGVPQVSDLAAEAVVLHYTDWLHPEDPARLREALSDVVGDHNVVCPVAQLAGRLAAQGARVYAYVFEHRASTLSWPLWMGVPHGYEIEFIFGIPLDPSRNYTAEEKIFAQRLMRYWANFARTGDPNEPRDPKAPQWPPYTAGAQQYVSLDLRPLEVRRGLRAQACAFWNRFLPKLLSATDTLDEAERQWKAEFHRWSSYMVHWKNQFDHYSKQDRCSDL
Chain of Sodium-dependent noradrenaline transporter (P23975 whole entry): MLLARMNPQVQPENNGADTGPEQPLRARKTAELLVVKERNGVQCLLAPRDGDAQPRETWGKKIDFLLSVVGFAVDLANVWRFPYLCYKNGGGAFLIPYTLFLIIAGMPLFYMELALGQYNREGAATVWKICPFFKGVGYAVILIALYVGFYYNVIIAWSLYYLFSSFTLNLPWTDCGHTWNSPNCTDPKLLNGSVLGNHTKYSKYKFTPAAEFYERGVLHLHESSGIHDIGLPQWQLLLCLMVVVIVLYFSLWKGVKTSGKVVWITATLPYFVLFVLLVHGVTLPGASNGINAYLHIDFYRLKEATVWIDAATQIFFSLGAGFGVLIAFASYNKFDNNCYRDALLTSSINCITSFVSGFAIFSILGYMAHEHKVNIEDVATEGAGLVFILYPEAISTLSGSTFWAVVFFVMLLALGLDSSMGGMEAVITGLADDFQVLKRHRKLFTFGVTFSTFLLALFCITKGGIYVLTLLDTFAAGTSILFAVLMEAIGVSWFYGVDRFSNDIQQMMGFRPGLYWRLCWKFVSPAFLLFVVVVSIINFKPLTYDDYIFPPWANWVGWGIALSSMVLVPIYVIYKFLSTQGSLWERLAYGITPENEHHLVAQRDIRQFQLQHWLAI
Chain of cGMP-inhibited 3',5'-cyclic phosphodiesterase 3A (Q14432 whole entry): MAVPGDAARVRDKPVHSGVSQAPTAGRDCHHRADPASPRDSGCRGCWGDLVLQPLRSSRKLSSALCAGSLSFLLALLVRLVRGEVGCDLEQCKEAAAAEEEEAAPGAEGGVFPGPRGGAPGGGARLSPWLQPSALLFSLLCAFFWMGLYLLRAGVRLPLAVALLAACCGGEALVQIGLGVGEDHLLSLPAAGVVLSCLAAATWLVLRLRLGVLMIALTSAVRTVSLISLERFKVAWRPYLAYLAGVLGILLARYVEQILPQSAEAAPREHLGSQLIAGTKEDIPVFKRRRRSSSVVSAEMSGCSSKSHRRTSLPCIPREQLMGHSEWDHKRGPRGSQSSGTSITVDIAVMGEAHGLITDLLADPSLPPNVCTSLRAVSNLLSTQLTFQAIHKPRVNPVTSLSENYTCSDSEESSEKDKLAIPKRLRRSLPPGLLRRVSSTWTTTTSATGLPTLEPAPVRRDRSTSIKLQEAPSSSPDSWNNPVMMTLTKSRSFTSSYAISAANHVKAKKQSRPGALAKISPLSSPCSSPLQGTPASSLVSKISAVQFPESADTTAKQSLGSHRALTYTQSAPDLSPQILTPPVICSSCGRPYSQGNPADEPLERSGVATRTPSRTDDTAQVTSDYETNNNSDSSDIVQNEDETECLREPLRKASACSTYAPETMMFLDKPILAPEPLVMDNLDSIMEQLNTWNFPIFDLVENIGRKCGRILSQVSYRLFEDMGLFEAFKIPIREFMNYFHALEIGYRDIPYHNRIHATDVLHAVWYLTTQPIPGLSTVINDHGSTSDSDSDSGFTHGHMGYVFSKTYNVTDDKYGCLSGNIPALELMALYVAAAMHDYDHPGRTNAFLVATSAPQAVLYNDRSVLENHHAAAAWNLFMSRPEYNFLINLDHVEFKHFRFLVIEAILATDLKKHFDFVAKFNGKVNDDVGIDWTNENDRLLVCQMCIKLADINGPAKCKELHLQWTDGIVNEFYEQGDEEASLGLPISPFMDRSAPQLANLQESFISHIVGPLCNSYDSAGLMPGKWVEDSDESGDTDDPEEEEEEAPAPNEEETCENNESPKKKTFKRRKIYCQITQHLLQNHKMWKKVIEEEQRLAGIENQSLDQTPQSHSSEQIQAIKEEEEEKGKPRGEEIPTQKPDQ
Chain of Histamine H3 receptor (Q9Y5N1 whole entry): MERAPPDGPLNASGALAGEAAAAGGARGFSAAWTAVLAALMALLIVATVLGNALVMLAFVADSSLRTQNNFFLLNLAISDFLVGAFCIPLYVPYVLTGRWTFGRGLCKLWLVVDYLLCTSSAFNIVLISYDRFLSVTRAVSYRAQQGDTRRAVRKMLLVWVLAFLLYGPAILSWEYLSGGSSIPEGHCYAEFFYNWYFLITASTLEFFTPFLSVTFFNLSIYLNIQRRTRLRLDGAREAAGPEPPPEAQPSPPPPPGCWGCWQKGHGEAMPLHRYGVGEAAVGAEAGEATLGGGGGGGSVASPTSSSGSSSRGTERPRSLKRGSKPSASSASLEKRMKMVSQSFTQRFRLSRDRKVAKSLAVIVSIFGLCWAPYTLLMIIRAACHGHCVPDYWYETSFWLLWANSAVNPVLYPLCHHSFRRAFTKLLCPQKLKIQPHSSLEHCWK
Chain of 5-hydroxytryptamine receptor 2B (P41595 whole entry): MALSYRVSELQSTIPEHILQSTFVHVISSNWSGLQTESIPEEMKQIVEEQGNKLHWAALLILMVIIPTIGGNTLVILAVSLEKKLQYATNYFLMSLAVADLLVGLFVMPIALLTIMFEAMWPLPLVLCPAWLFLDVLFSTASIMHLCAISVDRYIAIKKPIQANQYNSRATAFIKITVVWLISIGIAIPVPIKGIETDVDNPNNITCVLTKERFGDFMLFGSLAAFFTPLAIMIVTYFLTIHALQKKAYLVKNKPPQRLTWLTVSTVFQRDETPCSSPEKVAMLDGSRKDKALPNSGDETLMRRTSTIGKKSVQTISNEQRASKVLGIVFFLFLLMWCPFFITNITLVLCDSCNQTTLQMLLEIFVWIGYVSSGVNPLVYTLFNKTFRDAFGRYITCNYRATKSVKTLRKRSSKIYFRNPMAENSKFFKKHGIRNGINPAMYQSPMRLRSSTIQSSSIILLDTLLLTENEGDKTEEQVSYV
Chain of Kappa-type opioid receptor (P41145 whole entry): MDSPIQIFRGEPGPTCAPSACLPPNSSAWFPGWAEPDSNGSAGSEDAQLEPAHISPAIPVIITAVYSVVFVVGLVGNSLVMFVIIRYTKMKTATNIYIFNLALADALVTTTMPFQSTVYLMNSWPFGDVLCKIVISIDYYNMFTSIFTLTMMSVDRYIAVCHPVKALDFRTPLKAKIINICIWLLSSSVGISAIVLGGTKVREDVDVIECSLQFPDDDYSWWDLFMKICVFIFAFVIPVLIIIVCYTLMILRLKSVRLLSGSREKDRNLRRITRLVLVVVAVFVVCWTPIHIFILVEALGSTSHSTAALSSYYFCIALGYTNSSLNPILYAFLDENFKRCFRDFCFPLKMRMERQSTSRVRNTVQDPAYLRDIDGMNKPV

One may read the AC50 as the concentration giving half of the maximal activity seen. In the case of `CC(=O)Nc1ccc(O)cc1` [ACETAMINOPHEN], the AC50 (at Thromboxane A2 receptor; in [1]; on Histamine H3 receptor; at Acetylcholinesterase; in [2]; on Progesterone receptor) was > 30 µM in each case. Besides, the AC50 (on Adenosine receptor A3; in experiment [3]) was > 30 µM in each case.

Regarding `NCC(CC(=O)O)c1ccc(Cl)cc1` (configuration not stated) [BACLOFEN], the AC50 on Thromboxane A2 receptor was > 30 µM; in [1], > 30 µM; at Histamine H3 receptor it was > 30 µM; at Acetylcholinesterase, > 30 µM; in [2], > 30 µM; in experiment [4] it was > 10 µM. For the same compound, the AC50 (on Progesterone receptor; at Adenosine receptor A3; in experiment [3]) was > 30 µM in each case.

On to `C[N+](C)(C)CCO` [CHOLINE], for which the concentration at half-maximal activity (AC50) (at Thromboxane A2 receptor; in experiment [1]; at Acetylcholinesterase; at Progesterone receptor; on Adenosine receptor A3; in experiment [3]) was > 30 µM each time.

Regarding `CN(C)[C@@H](c1cccc(O)c1)[C@H]1CCCC[C@H]1O` [CIRAMADOL], the AC50 (at Thromboxane A2 receptor; in [1]; at Acetylcholinesterase; at Progesterone receptor; at Adenosine receptor A3; in [3]) was > 30 µM each time.

For `CN(C)CCN1C(=O)c2ccccc2N(C)c2ccccc21` [DIBENZEPIN], the AC50 at Thromboxane A2 receptor is > 30 µM; in experiment [1] it was > 30 µM; at Acetylcholinesterase, > 30 µM; on Progesterone receptor, > 30 µM; on Adenosine receptor A3, > 30 µM; in [3], 0.212 µM.

As to `N[C@H](C(=O)O)[C@H](O)c1ccc(O)c(O)c1` [DROXIDOPA], the AC50 (at Thromboxane A2 receptor; in [1]; on Acetylcholinesterase; on Progesterone receptor; at Adenosine receptor A3; in experiment [3]) was > 30 µM in each case.

For `C[C@]12CC[C@@H]3c4ccc(O)cc4CC[C@H]3[C@@H]1C[C@@H](O)[C@@H]2O` [ESTRIOL], the AC50 on Thromboxane A2 receptor was > 30 µM; in [1], > 30 µM; at Acetylcholinesterase it was > 30 µM; on Progesterone receptor it was 3.3 µM; at Adenosine receptor A3, > 30 µM; in experiment [3], > 30 µM.

Turning to `O=C(O)c1cc(O)ccc1O` [GENTISIC ACID], the AC50 (on Thromboxane A2 receptor; in [1]; at Acetylcholinesterase; on Progesterone receptor; at Adenosine receptor A3; in [3]) was > 30 µM throughout.

For the compound `CCC1=C(C)CN(C(=O)NCCc2ccc(S(=O)(=O)NC(=O)N[C@H]3CC[C@H](C)CC3)cc2)C1=O` [GLIMEPIRIDE], the half-maximal activity concentration (AC50) (at Thromboxane A2 receptor; in experiment [1]; at Acetylcholinesterase; on Progesterone receptor; on Adenosine receptor A3; in experiment [3]) was > 30 µM in each case.

Consider `CC(C)Nc1ncccn1` [ISAXONINE], for which the AC50 (at Thromboxane A2 receptor; in [1]; on Acetylcholinesterase; at Progesterone receptor; on Adenosine receptor A3; in [3]) was > 30 µM in each case.

As to `N[C@@H](C(=O)N[C@@H]1C(=O)N2C(C(=O)O)=C(Cl)CC[C@H]12)c1ccccc1` [LORACARBEF ANHYDROUS], the AC50 (on Thromboxane A2 receptor; in experiment [1]; on Acetylcholinesterase; on Progesterone receptor; at Adenosine receptor A3; in experiment [3]) was > 30 µM in each case.

As to `OCCN1C[C@H](O)[C@@H](O)[C@H](O)[C@H]1CO` [MIGLITOL], the AC50 (on Thromboxane A2 receptor; in experiment [1]; at Acetylcholinesterase; on Progesterone receptor; at Adenosine receptor A3; in experiment [3]) was > 30 µM throughout.

For `CC(=O)N[C@@H]1[C@@H](O)[C@H](O)[C@@H](CO)O[C@H]1O` [N-ACETYLGLUCOSAMINE], the AC50 (on Thromboxane A2 receptor; in experiment [1]; on Acetylcholinesterase; on Progesterone receptor; on Adenosine receptor A3; in [3]) was > 30 µM throughout.

Turning to `O=C(CCNNC(=O)c1ccncc1)NCc1ccccc1` [NIALAMIDE], the concentration at half-maximal activity (AC50) (at Thromboxane A2 receptor; in [1]; at Acetylcholinesterase; on Progesterone receptor; on Adenosine receptor A3; in experiment [3]) was > 30 µM throughout.

As for `CC[N+]1(C)[C@@H]2CC(OC(=O)[C@H](CO)c3ccccc3)C[C@H]1[C@@H]1O[C@@H]12` (some centres not stated) [OXITROPIUM], the AC50 (at Thromboxane A2 receptor; in [1]; at Acetylcholinesterase; on Progesterone receptor; on Adenosine receptor A3; in [3]) was > 30 µM throughout.

As to `CC(C)(C)NC[C@H](O)COc1ccccc1C1CCCC1` [PENBUTOLOL], the AC50 is > 30 µM on Thromboxane A2 receptor; > 30 µM in experiment [1]; > 30 µM on Acetylcholinesterase; > 30 µM at Progesterone receptor; > 30 µM at Adenosine receptor A3; 13.4 µM in experiment [3].

Take `CC(C)(S)[C@@H](N)C(=O)O` [PENICILLAMINE]: the AC50 (on Thromboxane A2 receptor; in [1]; at Acetylcholinesterase; on Progesterone receptor; at Adenosine receptor A3; in experiment [3]) was > 30 µM in each case.

With `CN(C)S(=O)(=O)c1ccc2c(c1)N(CCCN1CCC(CCO)CC1)c1ccccc1S2` [PIPOTIAZINE], the AC50 at Thromboxane A2 receptor was > 30 µM; in experiment [1], > 30 µM; at Acetylcholinesterase, > 30 µM; at Progesterone receptor, > 30 µM; on Adenosine receptor A3 it was > 30 µM; in [3], 12 µM.

On to `C=C[C@H]1C[N@@]2CC[C@H]1C[C@H]2[C@H](O)c1ccnc2ccc(OC)cc12` [QUININE], for which the AC50 (at Thromboxane A2 receptor; in [1]; at Acetylcholinesterase; on Progesterone receptor; on Adenosine receptor A3; in experiment [3]) was > 30 µM each time.

In the case of `CCC(=O)NCC[C@@H]1CCc2ccc3c(c21)CCO3` [RAMELTEON], the AC50 (at Thromboxane A2 receptor; in experiment [1]; on Acetylcholinesterase; on Progesterone receptor; on Adenosine receptor A3; in experiment [3]) was > 30 µM each time.

As to `CCOC(=O)[C@H](CCc1ccccc1)N[C@@H](C)C(=O)N1[C@H](C(=O)O)C[C@H]2CCCC[C@@H]21` [TRANDOLAPRIL], the AC50 (on Thromboxane A2 receptor; in experiment [1]; on Acetylcholinesterase; on Progesterone receptor; at Adenosine receptor A3; in experiment [3]) was > 30 µM in each case.

As for `CCCCCCOc1nsnc1C1=CCCN(C)C1` [XANOMELINE], the AC50 on Thromboxane A2 receptor was > 30 µM; in [1] it was > 30 µM; on Acetylcholinesterase it was 17.2 µM; at Progesterone receptor, > 30 µM; at Adenosine receptor A3, > 30 µM; in experiment [3] it was 2.74 µM.

Source of the values: ChEMBL document CHEMBL5291721, “A preclinical secondary pharmacology resource illuminates target-adverse drug reaction associations of marketed drugs” (Nat Commun, 2023).
